Experimental findings from article PMC11195807, “Development of a multi-targeted chemotherapeutic approach based on G-quadruplex stabilisation and carbonic anhydrase inhibition” (Journal of Enzyme Inhibition and Medicinal Chemistry, 2024) are described below.

Assay [1] relates to F-c-Kit1-T GQ. As to the kind of experiment: FRET melting competition experiments. Format: binding. As to conditions: 2 molar equiv ligand; for ΔT1/2 F-c-Kit1-T + Hairpin (1:15): 15 molar equiv unlabelled Hairpin; for ΔT1/2 F-c-Kit1-T + Hairpin (1:50): 50 molar equiv unlabelled Hairpin; for ΔT1/2 F-c-Kit1-T: no competitor. An excerpt:
FRET melting analysis was used to further estimate the GQ over duplex selectivity of the selected compounds[53]. The GQ-forming oligonucleotide c-Kit1 labelled with FAM and TAMRA (F-c-Kit1-T) was employed because, among the parallel GQs used in this study (c-Kit1 and c-Myc), it was the only one with a lower T1/2 than the hairpin DNA duplex competitor (Hairpin), thus allowing proper estimation of the GQ-stabilising properties of the ligands in the presence of a large excess of the unlabelled (non-fluorescent) competitor. […] The sulphonamide S-3,2 was also considered since the crystal structure of such MTDL in complex with Tel23 was successfully obtained. Results of these experiments (Figure S9, Supporting Information and Table 3) confirmed that these compounds are efficient GQ stabilisers.
Measurements were carried out on an FP-8300 spectrofluorometer equipped with a Peltier temperature controller system (PCT-818). The dual-labelled GQ-forming FAM-[d([…])]-TAMRA sequence (F-c-Kit1-T), supplied by biomers.net GmbH (Ulm, Germany), was used for the experiments without further purification. […] The experiments were carried out in sealed quartz cuvettes with a path length of 1 cm, by using 0.2 μM GQ-forming oligonucleotide without or with 0.4 μM of each compound, and the unlabelled competitor (Hairpin) at 0, 3, and 10 μM final concentrations. FRET melting experiments were performed in the range 15–90 °C, with 0.2 °C/min heating rate, by monitoring the emission of FAM at 520 nm (upon excitation at 492 nm). Both excitation and emission slits were set to 5 nm. The emission intensity of FAM was then normalised between 0 and 1. Fluorescence emission spectra were acquired before (at 15 °C) and after (at 90 °C) the melting assay, in the range 500–650 nm, with a 100 nm/s scan speed. Data analysis was performed using OriginPro 2021 software.

Assay [2] concerns the target T1, hCA I (Homo sapiens, UniProt P00915).
T1 construct: made in house
Put plainly: stopped-flow CO2 hydrase assay, hCA I. Format: biochemical. The method, then: An Applied Photophysics stopped-flow instrument has been used for assaying the CA-catalysed CO2 hydration activity, as reported earlier. The enzyme concentrations were in the range 5–12 nM. All hCA isoforms were recombinant proteins, being obtained in-house as reported earlier.

Assay [3] deals with Tel23. As to the kind of experiment: CD melting experiments, Tel23 GQ. Type of assay: binding, human. As to conditions: for ΔT1/2 Tel23: 2 molar equiv compound, T1/2 of DNA alone 53.5 °C; for ΔΔT1/2 Tel23: ΔT1/2 of compound minus ΔT1/2 of berberine, 2 molar equiv.
For assay [4], the target named is T2, hCA XII (Homo sapiens, UniProt O43570).
T2 construct: made in house
T2 sequence (O43570 25-354): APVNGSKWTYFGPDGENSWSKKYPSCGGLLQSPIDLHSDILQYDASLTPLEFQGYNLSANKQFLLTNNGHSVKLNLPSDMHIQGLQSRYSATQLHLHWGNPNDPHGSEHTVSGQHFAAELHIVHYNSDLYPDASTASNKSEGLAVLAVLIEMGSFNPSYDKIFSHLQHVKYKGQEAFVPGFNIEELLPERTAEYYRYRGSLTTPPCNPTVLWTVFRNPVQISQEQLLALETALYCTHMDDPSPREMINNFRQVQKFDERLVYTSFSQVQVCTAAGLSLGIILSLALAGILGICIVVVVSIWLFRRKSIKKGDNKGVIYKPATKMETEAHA
Put plainly: stopped-flow CO2 hydrase assay, hCA XII. As to conditions: for Selectivity index (SI) I/XII: hCA XII over hCA I; for Selectivity index (SI) II/XII: hCA XII over hCA II; for Ki: mean ± SEM of three assays. Type of assay: biochemical. From the text: An Applied Photophysics stopped-flow instrument has been used for assaying the CA-catalysed CO2 hydration activity, as reported earlier. […] All hCA isoforms were recombinant proteins, being obtained in-house as reported earlier.

[5] abbreviates: sulphonamides, inhibitor-enzyme incubation 15 min, mean ± SEM of three assays.
The mark [6] stands for this setting: sulphonamides, inhibitor-enzyme incubation 15 min.
Setting [7] is: coumarins, inhibitor-enzyme incubation 6 h.

T1 sequence (P00915 whole entry): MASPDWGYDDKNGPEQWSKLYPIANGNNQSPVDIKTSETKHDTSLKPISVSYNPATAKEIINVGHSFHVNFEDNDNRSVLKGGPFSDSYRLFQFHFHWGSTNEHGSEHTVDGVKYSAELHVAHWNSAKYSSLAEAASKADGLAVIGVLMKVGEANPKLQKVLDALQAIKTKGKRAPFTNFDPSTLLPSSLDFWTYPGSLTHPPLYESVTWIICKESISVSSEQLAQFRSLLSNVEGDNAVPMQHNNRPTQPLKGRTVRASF

In the case of `COc1ccc2cc3[n+](cc2c1OCCn1cc(-c2ccc(S(N)(=O)=O)cc2)nn1)CCc1cc2c(cc1-3)OCO2` [Compound 26, 10-Methoxy-9–(2-(4–(4-sulfamoylphenyl)-1H-1,2,3-triazol-1-yl)ethoxy)-5,6-dihydro-[1,3]dioxolo[4,5-g]isoquinolino[3,2-a]isoquinolin-7-ium hexafluorophosphate], in assay [1], the “ΔT1/2 F-c-Kit1-T + Hairpin (1:15)” value was determined as 10.2 °C, the “ΔT1/2 F-c-Kit1-T + Hairpin (1:50)” value turned out to be 12.4 °C and the “ΔT1/2 F-c-Kit1-T” value is 12.4 °C. Also, the Ki (as a rule, the dissociation constant of the complex between target and ligand, obtained from inhibition or displacement) in assay [2] (setting [5]) was determined as 581 ± 32.5 nM. Besides, in assay [3], the “ΔT1/2 Tel23” value worked out at 10.0 °C and the “ΔΔT1/2 Tel23” value was 0.5 °C. Besides, in assay [4], the “Selectivity index (SI) I/XII” value is listed as 79.5 and the “Selectivity index (SI) II/XII” value is recorded as 8.1. Moreover, in assay [4] (setting [6]), the Ki was determined as 7.3 ± 0.5 nM.

With `COc1ccc2cc3[n+](cc2c1OCCCn1cc(COc2ccc(S(N)(=O)=O)cc2)nn1)CCc1cc2c(cc1-3)OCO2` [Compound 29, 10-Methoxy-9–(3-(4-((4-sulfamoylphenoxy)methyl)-1H-1,2,3-triazol-1-yl)propoxy)-5,6-dihydro-[1,3]dioxolo[4,5-g]isoquinolino[3,2-a]isoquinolin-7-ium hexafluorophosphate], in assay [1], the “ΔT1/2 F-c-Kit1-T + Hairpin (1:15)” value is 12.8 °C, the “ΔT1/2 F-c-Kit1-T + Hairpin (1:50)” value stood at 13.2 °C and the “ΔT1/2 F-c-Kit1-T” value stood at 13.2 °C. For the same molecule, the affinity in assay [2] (setting [5]) corresponds to a Ki of 805 ± 60.8 nM. Also, in assay [3], the “ΔT1/2 Tel23” value was found to be 8.0 °C and the “ΔΔT1/2 Tel23” value was −1.5 °C. Moreover, in assay [4], the “Selectivity index (SI) I/XII” value was found to be 25.8 and the “Selectivity index (SI) II/XII” value came to 2.0. This molecule also displayed a Ki in assay [4] (setting [6]) of 31.2 ± 2.5 nM.

In the case of `COc1ccc2cc3[n+](cc2c1OCCCCn1cc(-c2ccc(S(N)(=O)=O)cc2)nn1)CCc1cc2c(cc1-3)OCO2` [Compound 30, 10-Methoxy-9–(4–(4-(4-sulfamoylphenyl)-1H-1,2,3-triazol-1-yl)butoxy)-5,6-dihydro-[1,3]dioxolo[4,5-g]isoquinolino[3,2-a]isoquinolin-7-ium hexafluorophosphate], in assay [1], the “ΔT1/2 F-c-Kit1-T + Hairpin (1:15)” value amounted to 13.8 °C, the “ΔT1/2 F-c-Kit1-T + Hairpin (1:50)” value was determined as 12.6 °C and the “ΔT1/2 F-c-Kit1-T” value turned out to be 13.6 °C. In assay [2] (setting [5]), this molecule registered an inhibition constant (Ki) of 592 ± 36.3 nM. Moreover, in assay [3], the “ΔT1/2 Tel23” value was 9.0 °C and the “ΔΔT1/2 Tel23” value is −0.5 °C. Besides, in assay [4], the “Selectivity index (SI) I/XII” value is listed as 23.2 and the “Selectivity index (SI) II/XII” value is recorded as 2.2. In assay [4] (setting [6]), this molecule returned an inhibitory constant (Ki) of 25.5 ± 1.4 nM.

For `COc1ccc2cc3[n+](cc2c1OCCCCCn1cc(-c2ccc(S(N)(=O)=O)cc2)nn1)CCc1cc2c(cc1-3)OCO2` [Compound 32, 10-Methoxy-9-((5–(4-(4-sulfamoylphenyl)-1H-1,2,3-triazol-1-yl)pentyl)oxy)-5,6-dihydro-[1,3]dioxolo[4,5-g]isoquinolino[3,2-a]isoquinolin-7-ium hexafluorophosphate], in assay [1], the “ΔT1/2 F-c-Kit1-T + Hairpin (1:15)” value was 15.0 °C, the “ΔT1/2 F-c-Kit1-T + Hairpin (1:50)” value came to 14.6 °C and the “ΔT1/2 F-c-Kit1-T” value turned out to be 14.4 °C. The molecule also returned a Ki in assay [2] (setting [5]) of 574 ± 35.8 nM. In assay [3], the “ΔT1/2 Tel23” value was found to be 12.0 °C and the “ΔΔT1/2 Tel23” value was found to be 2.5 °C. Also, in assay [4], the “Selectivity index (SI) I/XII” value was 31.3 and the “Selectivity index (SI) II/XII” value is given as 0.9. The molecule also gave a Ki in assay [4] (setting [6]) of 18.3 ± 1 nM.

Turning to `COc1ccc2cc3[n+](cc2c1OCCCn1cc(COc2ccc4ccc(=O)oc4c2)nn1)CCc1cc2c(cc1-3)OCO2` [Compound 34, 10-Methoxy-9–(3-(4-(((2-oxo-2H-chromen-7-yl)oxy)methyl)-1H-1,2,3-triazol-1-yl)propoxy)-5,6-dihydro-[1,3]dioxolo[4,5-g]isoquinolino[3,2-a]isoquinolin-7-ium hexafluorophosphate], in assay [1], the “ΔT1/2 F-c-Kit1-T + Hairpin (1:15)” value came to 11.4 °C, the “ΔT1/2 F-c-Kit1-T + Hairpin (1:50)” value is 11.2 °C and the “ΔT1/2 F-c-Kit1-T” value was found to be 10.6 °C. For the same molecule, the Ki in assay [2] (setting [7]) was > 100000 nM. Besides, in assay [3], the “ΔT1/2 Tel23” value turned out to be 10.5 °C and the “ΔΔT1/2 Tel23” value turned out to be 1.0 °C. Besides, the Ki in assay [4] (setting [7]) worked out at 30.1 ± 1.5 nM. Moreover, in assay [4], the “Selectivity index (SI) I/XII” value is reported as > 332.2 and the “Selectivity index (SI) II/XII” value was > 332.2.

Regarding `COc1ccc2cc3[n+](cc2c1OCCCCn1cc(COc2ccc4ccc(=O)oc4c2)nn1)CCc1cc2c(cc1-3)OCO2` [Compound 37, 10-Methoxy-9–(4-(4-(((2-oxo-2H-chromen-7-yl)oxy)methyl)-1H-1,2,3-triazol-1-yl)butoxy)-5,6-dihydro-[1,3]dioxolo[4,5-g]isoquinolino[3,2-a]isoquinolin-7-ium hexafluorophosphate], in assay [1], the “ΔT1/2 F-c-Kit1-T + Hairpin (1:15)” value was 12.8 °C, the “ΔT1/2 F-c-Kit1-T + Hairpin (1:50)” value stood at 12.6 °C and the “ΔT1/2 F-c-Kit1-T” value was determined as 12.0 °C. Besides, the inhibition constant Ki in assay [2] (setting [7]) is > 100000 nM. Besides, in assay [3], the “ΔT1/2 Tel23” value amounted to 9.0 °C and the “ΔΔT1/2 Tel23” value was −0.5 °C. For the same molecule, the affinity in assay [4] (setting [7]), expressed as Ki, was 8.4 ± 0.5 nM. In addition, in assay [4], the “Selectivity index (SI) I/XII” value was > 1190 and the “Selectivity index (SI) II/XII” value was > 1190.

For `COc1ccc2cc3[n+](cc2c1OCCCCCn1cc(COc2ccc4ccc(=O)oc4c2)nn1)CCc1cc2c(cc1-3)OCO2` [Compound 39, 10-Methoxy-9-((5–(4-(((2-oxo-2H-chromen-7-yl)oxy)methyl)-1H-1,2,3-triazol-1-yl)pentyl)oxy)-5,6-dihydro-[1,3]dioxolo[4,5-g]isoquinolino[3,2-a]isoquinolin-7-ium hexafluorophosphate], in assay [1], the “ΔT1/2 F-c-Kit1-T + Hairpin (1:15)” value was 13.2 °C, the “ΔT1/2 F-c-Kit1-T + Hairpin (1:50)” value was found to be 14.0 °C and the “ΔT1/2 F-c-Kit1-T” value was 14.6 °C. In addition, in assay [2] (setting [7]), the Ki was > 100000 nM. Further, in assay [3], the “ΔT1/2 Tel23” value turned out to be 8.5 °C and the “ΔΔT1/2 Tel23” value was −1.0 °C. The affinity in assay [4] (setting [7]) corresponds to a Ki of 20.1 ± 1.3 nM. In assay [4], the “Selectivity index (SI) I/XII” value is on record as > 497.5 and the “Selectivity index (SI) II/XII” value is on record as > 497.5.
